# Reference: ChEMBL document CHEMBL4014283, “Structural insights of SmKDAC8 inhibitors: Targeting Schistosoma epigenetics through a combined structure-based 3D QSAR, in vitro and synthesis strategy” (Bioorg Med Chem, 2017)
# Activity calls are given as the source filed them. The rule behind the calls is not given here.
# Columns and labels:
# [1] = molecular target: KDAC1 (histone deacetylase 1) (Homo sapiens, UniProt Q13547); experiment: (§1) Inhibition of full length human C-terminal FLAG/His-tagged KDAC1 expressed in baculovirus expression system at 30 uM using substrate A after 60 mins by microfluidic assay relative to control; settings: probe substrate A
# [2] = molecular target: KDAC3/NCOR2 (histone deacetylase 3/nuclear receptor corepressor 2 complex) (Homo sapiens, UniProt O15379); experiment: (§2) Inhibition of full length human C-terminal His-tagged KDAC3/N-terminal GST-tagged human NCOR2 (395 to 489 residues) expressed in baculovirus expression system at 30 uM using FITC-p53 acetylated peptide as substrate after 60 mins by microfluidic assay; settings: probe FITC-p53 acetylated peptide
# [3] = molecular target: T1, Protein deacetylase HDAC6 (Homo sapiens, UniProt Q9UBN7); experiment: (§3) Inhibition of human KDAC6 expressed in baculovirus expression system at 30 uM using FITC-Histone 4 acetylated peptide as substrate after 60 mins by microfluidic assay; settings: 1 h, 30 µM
# T1 sequence (Q9UBN7 whole entry): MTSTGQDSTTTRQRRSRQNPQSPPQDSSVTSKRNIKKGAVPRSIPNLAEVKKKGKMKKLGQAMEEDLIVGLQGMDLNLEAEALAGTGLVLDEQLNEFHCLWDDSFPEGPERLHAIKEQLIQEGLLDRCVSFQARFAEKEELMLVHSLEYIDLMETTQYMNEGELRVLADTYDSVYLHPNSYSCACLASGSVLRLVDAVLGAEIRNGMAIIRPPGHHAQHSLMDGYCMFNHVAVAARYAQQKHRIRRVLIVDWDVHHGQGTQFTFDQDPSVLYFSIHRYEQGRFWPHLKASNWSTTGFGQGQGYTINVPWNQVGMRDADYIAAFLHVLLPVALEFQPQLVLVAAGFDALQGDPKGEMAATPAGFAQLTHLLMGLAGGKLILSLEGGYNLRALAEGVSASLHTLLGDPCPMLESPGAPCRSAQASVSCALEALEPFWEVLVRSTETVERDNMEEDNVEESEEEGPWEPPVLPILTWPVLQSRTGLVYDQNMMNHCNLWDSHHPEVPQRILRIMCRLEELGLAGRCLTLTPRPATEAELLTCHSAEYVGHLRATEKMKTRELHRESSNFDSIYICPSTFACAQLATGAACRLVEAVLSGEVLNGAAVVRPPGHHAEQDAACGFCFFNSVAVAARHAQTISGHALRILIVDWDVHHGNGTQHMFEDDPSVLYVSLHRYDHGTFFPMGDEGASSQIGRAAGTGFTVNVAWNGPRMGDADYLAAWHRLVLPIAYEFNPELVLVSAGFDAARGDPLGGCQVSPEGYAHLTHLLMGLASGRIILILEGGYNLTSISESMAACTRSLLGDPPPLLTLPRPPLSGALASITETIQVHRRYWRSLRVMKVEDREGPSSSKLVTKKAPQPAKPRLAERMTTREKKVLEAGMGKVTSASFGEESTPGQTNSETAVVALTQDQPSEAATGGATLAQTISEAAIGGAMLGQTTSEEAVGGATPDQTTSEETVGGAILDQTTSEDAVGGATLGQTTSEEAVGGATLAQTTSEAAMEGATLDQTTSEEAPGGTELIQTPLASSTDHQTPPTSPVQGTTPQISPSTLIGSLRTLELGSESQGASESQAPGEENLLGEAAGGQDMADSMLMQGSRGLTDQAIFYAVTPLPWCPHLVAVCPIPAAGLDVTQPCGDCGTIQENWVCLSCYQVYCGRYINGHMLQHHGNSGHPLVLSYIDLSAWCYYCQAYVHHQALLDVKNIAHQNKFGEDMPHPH
# Histone deacetylase 8 = molecular target: T2, Histone deacetylase 8 (Homo sapiens, UniProt Q9BY41); experiment: (§4) Inhibition of full length human C-terminal His-tagged KDAC8 expressed in baculovirus expression system at 30 uM using (FAM)-labeled peptide as substrate after 60 mins by microfluidic assay relative to control; settings: 1 h, 30 µM
# T2 sequence (Q9BY41 whole entry): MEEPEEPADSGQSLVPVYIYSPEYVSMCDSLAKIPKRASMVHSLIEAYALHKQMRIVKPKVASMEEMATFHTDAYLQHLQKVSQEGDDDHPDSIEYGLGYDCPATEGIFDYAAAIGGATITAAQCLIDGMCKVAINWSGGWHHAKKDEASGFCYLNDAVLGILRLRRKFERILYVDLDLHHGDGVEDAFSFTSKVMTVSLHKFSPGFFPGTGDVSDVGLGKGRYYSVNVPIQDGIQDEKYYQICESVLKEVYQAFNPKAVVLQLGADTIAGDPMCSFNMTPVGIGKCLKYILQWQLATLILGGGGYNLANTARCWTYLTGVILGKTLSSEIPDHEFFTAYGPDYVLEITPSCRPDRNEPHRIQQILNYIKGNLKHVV
# [4] = molecular target: T3, Histone deacetylase 8 (Schistosoma mansoni) (UniProt A5H660); experiment: Inhibition of Schistosoma mansoni KDAC8 at 30 uM using (FAM)-labeled peptide as substrate after 60 mins by microfluidic assay
# T3 sequence (whole entry): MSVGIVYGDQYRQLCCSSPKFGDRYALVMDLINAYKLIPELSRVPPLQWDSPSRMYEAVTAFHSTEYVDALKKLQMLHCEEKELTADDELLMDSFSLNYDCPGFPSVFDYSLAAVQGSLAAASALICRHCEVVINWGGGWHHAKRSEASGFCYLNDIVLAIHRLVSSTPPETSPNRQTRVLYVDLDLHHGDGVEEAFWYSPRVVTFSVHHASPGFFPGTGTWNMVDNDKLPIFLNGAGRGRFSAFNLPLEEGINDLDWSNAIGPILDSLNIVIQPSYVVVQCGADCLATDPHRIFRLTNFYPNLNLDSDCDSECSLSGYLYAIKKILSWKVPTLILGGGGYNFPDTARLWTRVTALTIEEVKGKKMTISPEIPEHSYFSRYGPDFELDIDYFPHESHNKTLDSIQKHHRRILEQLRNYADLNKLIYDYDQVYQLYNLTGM
# Histone deacetylase 1 = Histone deacetylase 1 (Homo sapiens, UniProt Q13547); experiment: as §1; settings: 1 h, 30 µM
# [5] = molecular target: T4, KDAC6 (protein deacetylase HDAC6) (Homo sapiens, UniProt Q9UBN7); experiment: as §3; settings: probe FITC-Histone 4 acetylated peptide
# T4 sequence (Q9UBN7 whole entry): T1 sequence (Q9UBN7 whole entry)
# [6] = molecular target: T5, KDAC8 (histone deacetylase 8) (Homo sapiens, UniProt Q9BY41); experiment: as §4; settings: probe (FAM)-labeled peptide
# T5 sequence (Q9BY41 whole entry): T2 sequence (Q9BY41 whole entry)
# [7] = molecular target: Histone deacetylase 3/Nuclear receptor corepressor 2 (HDAC3/NCoR2) (Homo sapiens, UniProt O15379+Q9Y618); experiment: as §2; settings: 1 h, 30 µM
# Histone deacetylase 3/Nuclear receptor corepressor 2 (HDAC3/NCoR2), sequence (O15379 whole entry): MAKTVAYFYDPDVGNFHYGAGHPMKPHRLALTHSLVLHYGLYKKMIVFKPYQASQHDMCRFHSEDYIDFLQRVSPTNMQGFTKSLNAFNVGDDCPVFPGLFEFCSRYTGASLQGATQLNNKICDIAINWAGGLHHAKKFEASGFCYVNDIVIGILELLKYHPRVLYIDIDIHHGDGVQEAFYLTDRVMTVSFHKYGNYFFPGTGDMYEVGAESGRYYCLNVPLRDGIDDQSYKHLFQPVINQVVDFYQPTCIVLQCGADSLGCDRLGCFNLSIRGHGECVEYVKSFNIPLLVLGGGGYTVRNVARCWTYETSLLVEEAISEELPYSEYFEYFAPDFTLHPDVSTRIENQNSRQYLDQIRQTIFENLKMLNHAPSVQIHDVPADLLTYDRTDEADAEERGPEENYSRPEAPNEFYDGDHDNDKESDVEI
# Histone deacetylase 3/Nuclear receptor corepressor 2 (HDAC3/NCoR2), sequence (Q9Y618 whole entry): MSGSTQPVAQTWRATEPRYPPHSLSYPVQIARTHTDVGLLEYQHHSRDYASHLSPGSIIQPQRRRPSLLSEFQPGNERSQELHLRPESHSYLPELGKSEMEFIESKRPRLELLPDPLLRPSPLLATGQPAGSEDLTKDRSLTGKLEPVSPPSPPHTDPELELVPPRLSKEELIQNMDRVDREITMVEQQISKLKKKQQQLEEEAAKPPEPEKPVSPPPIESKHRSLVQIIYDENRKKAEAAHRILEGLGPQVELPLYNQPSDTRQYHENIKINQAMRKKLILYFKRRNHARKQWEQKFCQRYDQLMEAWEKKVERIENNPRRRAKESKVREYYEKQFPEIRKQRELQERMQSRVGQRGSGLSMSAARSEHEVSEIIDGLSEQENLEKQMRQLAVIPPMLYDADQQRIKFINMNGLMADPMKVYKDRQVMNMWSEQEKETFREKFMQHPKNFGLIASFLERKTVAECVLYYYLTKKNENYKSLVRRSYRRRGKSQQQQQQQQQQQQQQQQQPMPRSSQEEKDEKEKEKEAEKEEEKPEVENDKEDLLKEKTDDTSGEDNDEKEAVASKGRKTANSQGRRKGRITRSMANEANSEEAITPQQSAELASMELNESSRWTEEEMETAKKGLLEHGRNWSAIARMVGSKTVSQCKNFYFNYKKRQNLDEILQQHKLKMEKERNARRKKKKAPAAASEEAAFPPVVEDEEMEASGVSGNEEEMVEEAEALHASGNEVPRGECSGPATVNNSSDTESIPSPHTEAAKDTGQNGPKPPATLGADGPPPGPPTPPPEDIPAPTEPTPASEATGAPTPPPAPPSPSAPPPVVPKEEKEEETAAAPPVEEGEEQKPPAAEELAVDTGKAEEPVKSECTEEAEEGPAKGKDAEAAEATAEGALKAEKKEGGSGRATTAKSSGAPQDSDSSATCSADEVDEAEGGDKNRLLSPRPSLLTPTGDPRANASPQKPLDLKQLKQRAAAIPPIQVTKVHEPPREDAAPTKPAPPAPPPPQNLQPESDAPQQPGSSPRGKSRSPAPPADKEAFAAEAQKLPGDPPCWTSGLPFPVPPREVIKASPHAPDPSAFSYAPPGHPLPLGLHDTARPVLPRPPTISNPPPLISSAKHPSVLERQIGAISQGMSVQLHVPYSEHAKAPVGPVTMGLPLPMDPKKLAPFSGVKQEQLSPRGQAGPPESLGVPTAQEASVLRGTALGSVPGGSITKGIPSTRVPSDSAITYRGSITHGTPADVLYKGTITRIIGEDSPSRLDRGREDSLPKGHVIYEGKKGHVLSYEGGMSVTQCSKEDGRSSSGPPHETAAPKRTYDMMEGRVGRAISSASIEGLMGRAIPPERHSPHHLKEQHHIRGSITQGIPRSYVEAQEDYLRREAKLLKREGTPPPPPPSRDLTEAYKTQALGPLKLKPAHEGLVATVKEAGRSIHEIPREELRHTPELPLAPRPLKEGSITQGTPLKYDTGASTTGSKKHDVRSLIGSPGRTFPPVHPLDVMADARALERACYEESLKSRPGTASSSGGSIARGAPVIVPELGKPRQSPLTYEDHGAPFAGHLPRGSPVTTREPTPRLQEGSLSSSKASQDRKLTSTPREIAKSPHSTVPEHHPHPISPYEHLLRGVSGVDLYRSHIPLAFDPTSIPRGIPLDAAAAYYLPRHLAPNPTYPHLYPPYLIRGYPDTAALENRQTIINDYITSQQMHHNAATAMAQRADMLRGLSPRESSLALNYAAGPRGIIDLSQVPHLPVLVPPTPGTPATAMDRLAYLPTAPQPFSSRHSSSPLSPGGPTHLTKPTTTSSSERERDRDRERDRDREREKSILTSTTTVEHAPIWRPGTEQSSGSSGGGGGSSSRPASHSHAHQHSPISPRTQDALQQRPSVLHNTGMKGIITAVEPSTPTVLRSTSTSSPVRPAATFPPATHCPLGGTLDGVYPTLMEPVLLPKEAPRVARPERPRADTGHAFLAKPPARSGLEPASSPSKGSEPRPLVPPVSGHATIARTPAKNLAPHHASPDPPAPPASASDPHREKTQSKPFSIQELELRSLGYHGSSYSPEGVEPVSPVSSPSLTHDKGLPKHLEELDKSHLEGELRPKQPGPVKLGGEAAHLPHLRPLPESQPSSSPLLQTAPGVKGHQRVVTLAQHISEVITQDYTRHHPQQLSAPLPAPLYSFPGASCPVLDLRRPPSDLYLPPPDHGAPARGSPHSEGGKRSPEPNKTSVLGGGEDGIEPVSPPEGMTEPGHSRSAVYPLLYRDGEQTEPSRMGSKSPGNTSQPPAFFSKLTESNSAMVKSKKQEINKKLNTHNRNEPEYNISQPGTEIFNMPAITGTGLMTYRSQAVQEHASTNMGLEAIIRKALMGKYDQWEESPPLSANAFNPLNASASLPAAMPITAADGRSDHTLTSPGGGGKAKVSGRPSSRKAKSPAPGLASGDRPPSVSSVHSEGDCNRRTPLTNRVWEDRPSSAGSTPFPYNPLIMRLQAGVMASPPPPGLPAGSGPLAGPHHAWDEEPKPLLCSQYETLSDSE
# Histone deacetylase 1, sequence (Q13547 whole entry): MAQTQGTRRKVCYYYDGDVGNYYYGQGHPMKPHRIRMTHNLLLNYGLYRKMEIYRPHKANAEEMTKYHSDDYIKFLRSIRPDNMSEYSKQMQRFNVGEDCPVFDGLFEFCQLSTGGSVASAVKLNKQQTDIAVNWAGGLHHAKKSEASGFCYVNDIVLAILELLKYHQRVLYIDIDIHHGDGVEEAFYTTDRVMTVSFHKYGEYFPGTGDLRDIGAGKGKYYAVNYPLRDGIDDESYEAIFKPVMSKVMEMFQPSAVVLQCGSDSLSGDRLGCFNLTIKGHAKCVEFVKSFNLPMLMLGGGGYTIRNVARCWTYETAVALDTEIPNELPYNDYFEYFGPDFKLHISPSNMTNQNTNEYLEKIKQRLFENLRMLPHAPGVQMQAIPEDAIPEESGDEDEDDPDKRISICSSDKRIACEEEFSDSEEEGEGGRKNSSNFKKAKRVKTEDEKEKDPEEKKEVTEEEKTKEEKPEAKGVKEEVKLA
# KDAC1 (histone deacetylase 1), sequence (Q13547 whole entry, the tested form may be a part): as the sequence (Q13547 whole entry) above
# KDAC3/NCOR2 (histone deacetylase 3/nuclear receptor corepressor 2 complex), sequence (O15379 whole entry, the tested form may be a part): as the sequence (O15379 whole entry) above
# KDAC3/NCOR2 (histone deacetylase 3/nuclear receptor corepressor 2 complex), sequence (Q9Y618 whole entry, further chain, the tested form may be a part): as the sequence (Q9Y618 whole entry) above
Structure (SMILES),"inhibition at 1 h, 30 µM [1]","inhibition at 1 h, 30 µM [2]",inhibition (INH) [3],inhibition (INH) (Histone deacetylase 8),inhibition [4],inhibition (INH) (Histone deacetylase 1),"inhibition at 1 h, 30 µM [5]","inhibition at 1 h, 30 µM [6]",inhibition (INH) [7]
CC1=CC(C)(C)N=C(S)N1c1cccc2cc(S(=O)(=O)O)ccc12,3%,1%,Not Active,Not Active,9%,–,–,–,–
CSC1=NC=C(C#N)C2=NC(c3ccc(Cl)cc3)NN12 (stereo not given),–,8%,–,Not Active,inactive,Not Active,3%,–,–
CSc1nc(O)nnc1Sc1ccccc1,–,24%,–,Not Active,inactive,Not Active,20%,–,–
O=C1Nc2cc(Cl)c(Cl)cc2S(=O)(=O)N1O,–,0.8%,–,–,inactive,Not Active,12.3%,23.5%,–
CCOC(=O)CSc1nc2nc(Cl)c(Cl)[nH]c-2n1,–,9%,–,Not Active,inactive,Not Active,21%,–,–
CCOC(=O)C(Cc1ccc(O)cc1)Nc1nc2ccccc2o1 (stereo not given),1%,7%,Not Active,Not Active,inactive,–,–,–,–
FC(F)(F)c1cccc(OCC2CN=C(S)O2)c1 (stereo not given),2%,6%,–,–,2%,–,3%,16%,–
CCOC(=O)c1[nH]c(C(=O)O)c(OC(=O)CC)c1C,5%,–,Not Active,Not Active,inactive,–,–,–,Not Active
CCOC(=O)Cc1cc(=O)[nH]n(-c2ccccc2)c1=O,2%,1%,–,–,1%,–,2%,3%,–
Nc1ccccc1SC1CC(=O)N(c2ccccc2Cl)C1=O (stereo not given),–,–,–,Not Active,1%,Not Active,1%,–,Not Active
O=[N+]([O-])c1c(N2CCN(CCO)CC2)nc2ccccn12,–,–,–,–,2%,Not Active,1%,31%,Not Active
O=C(O)Cc1ccc(/N=N/c2c(O)c(C(=O)O)cc3ccccc23)cc1,2%,1%,–,–,inactive,–,3%,19%,–

# Now from value to compound:
"inhibition at 1 h, 30 µM [1]","inhibition at 1 h, 30 µM [2]",inhibition (INH) [3],inhibition (INH) (Histone deacetylase 8),inhibition [4],inhibition (INH) (Histone deacetylase 1),"inhibition at 1 h, 30 µM [5]","inhibition at 1 h, 30 µM [6]",inhibition (INH) [7],Structure (SMILES)
–,6%,–,–,37%,Not Active,3%,17%,–,COC(=O)CC1(C(=O)OC)Nc2cc(Cl)c(Cl)cc2S(=O)(=O)N1 (stereo not given)
1%,6%,Not Active,Not Active,inactive,–,–,–,–,CC1=NN(c2ccccc2)C(=O)C1/N=N/c1ccc(S(N)(=O)=O)cc1 (stereo not given)
3%,10%,Not Active,Not Active,inactive,–,–,–,–,O=C(Nc1cccc([N+](=O)[O-])c1)c1ccc2ccccc2c1O
–,–,–,Not Active,inactive,Not Active,9%,–,Not Active,CC1(C)[C@H]2CC[C@H](CNC(=N)CSS(=O)(=O)O)[C@@H]1C2
–,9%,–,–,13%,Not Active,7%,24%,–,COc1ccc([N+](=O)[O-])cc1NS(=O)(=O)c1ccc(C)cc1
–,6.7%,–,–,8.43%,Not Active,3.7%,10.4%,–,Nc1cc(Cl)c(Cl)cc1S(=O)(=O)NO
–,–,–,–,inactive,Not Active,3%,19%,Not Active,Cc1cc(OCCCCOc2ccc(C#N)cc2)ccc1[N+](=O)[O-]
